The source of these data is publication PMC9030691, “Toxicokinetics of β-Amanitin in Mice and In Vitro Drug–Drug Interaction Potential” (Pharmaceutics, 2022).

For data set [1] the following is noted: LC-HRMS, cited from earlier work. On the procedure:
Concentrations of β-amanitin in biological samples were evaluated following our previous methodology. The standard calibration curves for β-amanitin in mouse plasma ranged from 0.5 to 500 ng/mL and were linear, with a correlation coefficient of 0.9952. The inter- and intra-day accuracy and precision fell within the acceptance criteria (3.1–14.6% of coefficients of variation (CVs) and 92.5–115.0% of accuracy). The extraction recovery and matrix effect of this analytical method were 82.8–88.9% and 93.0–98.6%. Three freeze–thaw cycles (88.7–97.2% accuracy with CVs of 3.6–14.3%), short-term ...

The target in a further data set is T1, CYP2D6 (Homo sapiens, UniProt P10635).
T1 construct: from tissue; host or cells: ultrapooled human liver microsomes
T1 sequence (P10635 whole entry): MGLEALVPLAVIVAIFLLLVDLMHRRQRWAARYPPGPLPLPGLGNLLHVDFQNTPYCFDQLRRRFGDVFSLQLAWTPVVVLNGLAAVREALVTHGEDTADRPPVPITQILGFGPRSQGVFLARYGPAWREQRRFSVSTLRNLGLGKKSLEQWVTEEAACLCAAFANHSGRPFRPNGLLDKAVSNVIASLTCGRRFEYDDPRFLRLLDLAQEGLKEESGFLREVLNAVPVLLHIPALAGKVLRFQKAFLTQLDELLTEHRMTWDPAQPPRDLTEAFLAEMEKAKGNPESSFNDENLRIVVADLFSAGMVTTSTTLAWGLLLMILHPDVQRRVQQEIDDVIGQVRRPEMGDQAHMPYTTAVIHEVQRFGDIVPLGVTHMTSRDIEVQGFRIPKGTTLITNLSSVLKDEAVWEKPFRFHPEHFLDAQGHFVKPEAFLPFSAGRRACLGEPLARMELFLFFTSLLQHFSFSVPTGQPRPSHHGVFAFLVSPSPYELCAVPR
Briefly: CYP2D6 inhibition in human liver microsomes. It counts as in vitro ADME. The note with it: ultrapooled human liver microsomes 0.2 mg/mL, 5 μM bufuralol, β-amanitin 0.1–100 μM, pH 7.4, 37 °C, 15 min, LC-MS/MS, n = 3, read-out: IC50, CYP2D6 bufuralol 1′-hydroxylase. As to the method:
(§1) β-amanitin inhibition (IC50 values) of CYP1A2, CYP2A6, CYP2B6, CYP2C8, CYP2C9, CYP2C19, CYP2D6, and CYP3A4 enzyme activities in HLMs were evaluated using LC-MS/MS and CYP substrates as previously described. Each incubation mixture was made up to a volume of 100 μL including HLMs (0.2 mg/mL), 50 mM potassium phosphate buffer (pH 7.4), 1.0 mM NADPH, 10 mM magnesium chloride, various concentrations of β-amanitin (0.1–100 μM), a cocktail of seven CYP probe substrates (50 μM phenacetin for CYP1A2, 2.5 μM coumarin for CYP2A6, 2 μM amodiaquine for CYP2C8, 10 μM diclofenac for CYP2C9, 100 μM [S]-mephenytoin for CYP2C19, 5 μM bufuralol for CYP2D6, and 2.5 μM midazolam for CYP3A4 in acetonitrile), or 50 μM bupropion for CYP2B6. The reactions were initiated with NADPH followed by incubation in a shaking water bath at 37 °C for 15 min with or without 30 min preincubation with NADPH. Reactions were stopped with 50 μL of ice-cold methanol containing ^13C2, ^15N-acetaminophen and d9-1′-hydroxybufuralol (ISs). Incubation mixtures were centrifuged at 13,000× g for 8 min at 4 °C. An aliquot (5 μL) of the supernatant from the reaction mixture was analyzed by the previous LC-MS/MS method.

A further data set concerns the target T2, CYP2C8 (Homo sapiens, UniProt P10632).
T2 construct: enzyme activities in HLMs were evaluated using LC-MS/MS and CYP substrates; from tissue; host or cells: ultrapooled human liver microsomes
T2 sequence (P10632 1-490): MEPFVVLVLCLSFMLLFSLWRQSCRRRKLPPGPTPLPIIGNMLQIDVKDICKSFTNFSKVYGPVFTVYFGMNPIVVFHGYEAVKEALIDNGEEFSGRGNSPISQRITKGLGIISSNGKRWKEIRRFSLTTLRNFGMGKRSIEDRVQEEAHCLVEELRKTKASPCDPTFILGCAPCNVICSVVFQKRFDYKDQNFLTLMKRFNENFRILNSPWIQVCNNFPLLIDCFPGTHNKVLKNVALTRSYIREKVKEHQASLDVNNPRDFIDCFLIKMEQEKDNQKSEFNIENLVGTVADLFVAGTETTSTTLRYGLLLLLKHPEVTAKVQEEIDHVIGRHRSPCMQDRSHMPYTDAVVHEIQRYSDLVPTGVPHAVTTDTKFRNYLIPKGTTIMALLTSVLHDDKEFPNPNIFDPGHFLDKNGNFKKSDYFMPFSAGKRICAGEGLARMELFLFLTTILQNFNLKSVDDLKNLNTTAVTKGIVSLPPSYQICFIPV
Kind of data set: CYP2C8 inhibition in human liver microsomes. It counts as in vitro ADME. As to conditions: ultrapooled human liver microsomes 0.2 mg/mL, 2 μM amodiaquine, β-amanitin 0.1–100 μM, pH 7.4, 37 °C, 15 min, LC-MS/MS, n = 3, read-out: IC50, CYP2C8 amodiaquine N-deethylase. On the procedure: as §1
In general terms: Microsomes from liver hold many membrane-bound enzymes, among them those of drug oxidation.

Data set [2] in a line: Urinary and fecal excretion in mice. It counts as in vivo, male ICR mice. The note with it: male mice, LC-HRMS, mean ± SD; for dose excreted: ICR, mouse. On the procedure:
β-amanitin in water was administered by iv bolus injection into the tail vein at 0.8 mg/kg dose (n = 4) and by oral gavage at 10 mg/kg dose (n = 3) to male mice. Mice were returned to metabolic cages, and urine and feces samples were collected individually at 0–6, 6–12, 12–24, 24–36, and 36–48 h. Urine and feces samples were stored at −80 °C until the analysis.
Each tissue and feces sample was homogenized in water (1:3, w/v). In total, 50 μL aliquots of urine, tissue homogenates, or feces homogenates were mixed with 150 μL of 4′-hydroxydiclofenac solution (IS, 5 ng/mL in methanol). The other steps were as described for plasma sample preparation.

The next data set deals with mice. As to conditions: intraperitoneal injection; cited from earlier work. From the text:
(§2) The Amanitaceae family is responsible for nearly 95% of all fatal mushroom poisonings, and amatoxins are the primary threats to human life. The content of amatoxins varies by Amanita species, but α- and β-amanitin are the most abundant substances. […] Among amatoxins, α-amanitin i ...

For another data set, the system named is rats. As to conditions: intraperitoneal injection; cited from earlier work.
Source text: as §2

The conditions of data set [3]: mice, oral administration at doses of 2, 5, or 10 mg/kg; cited from earlier work. On the procedure:
Amanita phalloides poisoning can cause acute hepatitis, leading to the rapid development of liver insufficiency and ultimately coma and death. Nephrotoxicity is reported less frequently. Yilmaz et al. reported that an oral intake of approximately 50 g of fresh Amanita phalloides, representing a dose of 0.32 mg/kg of amatoxins, can be lethal. A few reports are available that describe the toxicokinetics of α- and β-amanitin after the oral administration of toadstool extract to beagle dogs and rats. In addition, the toxicokinetics of α-amanitin were investi ...

The mark [4] stands for this setting: with 30 min NADPH preincubation.

Where two headings read alike, the source gives them in different places. Bounds are passed on as bounds.

What is called IC50 is the concentration that inhibits the measured activity by half.

Consider `CC[C@H](C)[C@@H]1NC(=O)CNC(=O)[C@@H]2Cc3c([nH]c4cc(O)ccc34)[S@+]([O-])C[C@H](NC(=O)CNC1=O)C(=O)N[C@@H](CC(=O)O)C(=O)N1C[C@H](O)C[C@H]1C(=O)N[C@@H]([C@@H](C)[C@@H](O)CO)C(=O)N2` [β-amanitin], for which, in data set [1] (mouse plasma, CVs of 3.6–7.4%), the “Stability, short-term storage for 2 h on ice (accuracy)” value is 94.7–97.9%. Moreover, the “Stability, three freeze–thaw cycles (accuracy)” value in data set [1] (mouse plasma, CVs of 3.6–14.3%) is 88.7–97.2%. Further, in data set [1] (mouse plasma, CVs of 3.7–9.1%), the “Stability, long-term storage for 2 weeks at −80 °C (accuracy)” value is given as 90.4–105.0%. The “Post-preparation stability for 24 h in 4 °C autosampler (accuracy)” value in data set [1] (processed mouse plasma samples, CVs of 6.8–7.5%) is 90.7–94.1%. For the same molecule, the IC50 on CYP2D6 (setting [4]) was 71.6 µM; at CYP2D6 (without NADPH preincubation) it was 76.2 µM; at CYP2C8 (setting [4]), more than 100 µM; on CYP2C8 (without NADPH preincubation), more than 100 µM. The dose excreted in data set [2] (iv bolus 0.8 mg/kg, metabolic cages, urine 0–48 h, n = 4, read-out: Total urinary recovery (parent form) after 48 h) worked out at 52.3 ± 19.8%; in data set [2] (oral gavage 10 mg/kg, feces 0–48 h, n = 3, read-out: Cumulative fecal excretion for 48 h), 72.4 ± 24.7%; in data set [2] (oral gavage 10 mg/kg, urine 0–48 h, n = 3, read-out: Cumulative urinary excretion for 48 h), 2.4 ± 1.2%. Also, in data set [2] (iv bolus 0.8 mg/kg, feces 0–48 h, n = 4), the “Total fecal recovery over 48 h” value is 7.6% ± 1.2. Also, the “Urinary recovery within 6 h” value in data set [2] (iv bolus 0.8 mg/kg, urine 0–6 h, n = 4) is 40.9% ± 27.6.
As for α-amanitin [reference compound], the Lethal dose in the data set on mice is 0.3 to 0.6 mg/kg; with rats it was 4.0 mg/kg. Also, the Absolute bioavailability in data set [3] is 3.5–4.8%.
